Experimental data published in US10406207B2, “Peptide conjugates of GLP-1 receptor agonists and gastrin and their use” (priority 2010, dated 2019).
pEC50: −log10 of the molar value. Square brackets hold non-standard residues; d marks the D form. Ends that are not written are not given here. Peptide text beside a SMILES is read from it. Orn = NCCC[C@H](N)C(=O)O; AEEA = NCCOCCOCC(=O)O

Tests used:
Assay type in all cases: cell-based
human CCK-B R = target: T1, human CCK-B R (Homo sapiens, UniProt P32239); test: Human CCK-B receptor efficacy assay (AlphaScreen SureFire p-ERK); conditions: Table 2; read-out: hCCK-B R EC50
T1 construct: expressed in transfected cells
T1 sequence (P32239 1-447): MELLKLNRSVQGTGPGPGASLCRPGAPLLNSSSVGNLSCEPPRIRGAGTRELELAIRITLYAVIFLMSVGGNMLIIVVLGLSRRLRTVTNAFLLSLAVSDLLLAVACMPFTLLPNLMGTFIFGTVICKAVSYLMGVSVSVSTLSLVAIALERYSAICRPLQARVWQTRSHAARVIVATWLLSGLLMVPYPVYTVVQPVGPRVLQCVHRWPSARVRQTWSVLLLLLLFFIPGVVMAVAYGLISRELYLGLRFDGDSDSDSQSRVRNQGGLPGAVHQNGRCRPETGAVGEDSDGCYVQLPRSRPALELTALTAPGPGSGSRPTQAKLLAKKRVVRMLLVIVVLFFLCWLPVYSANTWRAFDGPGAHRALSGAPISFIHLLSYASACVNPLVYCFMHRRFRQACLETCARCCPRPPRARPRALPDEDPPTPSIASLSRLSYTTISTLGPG

human GLP-1 R = target: T2, human GLP-1 R (Homo sapiens, UniProt P43220); test: Human GLP-1 receptor efficacy assay (cAMP induction, FlashPlate); conditions: Table 2; read-out: hGLP-1 R EC50
T2 construct: expressed in transfected cells
Procedure: On the day of analysis, growth medium was removed and the cells were washed once with 200 μl Tyrode buffer [Tyrode's Salts (9.6 g/l), 10 mM HEPES, pH 7.4]. […] The reaction was stopped by addition of 25 μl 0.5 M HCl and incubated on ice for 60 min.

mouse CCK-B R = target: T3, mouse CCK-B R (Mus musculus, UniProt P56481); test: Mouse CCK-B receptor efficacy assay (AlphaScreen SureFire p-ERK)
T3 construct: expressed in transfected cells
T3 sequence (P56481 1-453): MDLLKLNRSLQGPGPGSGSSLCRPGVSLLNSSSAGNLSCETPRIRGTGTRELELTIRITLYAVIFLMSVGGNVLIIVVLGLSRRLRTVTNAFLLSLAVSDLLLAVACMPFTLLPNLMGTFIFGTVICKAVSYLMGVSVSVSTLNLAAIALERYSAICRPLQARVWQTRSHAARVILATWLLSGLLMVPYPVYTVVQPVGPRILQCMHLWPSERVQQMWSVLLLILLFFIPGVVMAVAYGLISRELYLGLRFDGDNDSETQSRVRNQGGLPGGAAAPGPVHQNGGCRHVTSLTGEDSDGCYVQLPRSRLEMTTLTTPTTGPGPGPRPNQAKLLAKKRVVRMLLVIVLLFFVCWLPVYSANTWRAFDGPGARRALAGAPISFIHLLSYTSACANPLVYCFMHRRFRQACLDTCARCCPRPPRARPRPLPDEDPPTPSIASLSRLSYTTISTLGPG
Text: CCK-B Receptor (CCK-B R) Efficacy Assay:
To test binding and activation of CCK-B R we produced stable cell lines expressing one of the human or mouse CCK receptors in a manner similar to that for production of the hGLP-1 R cell lines were generated (vide supra). In brief, we used HEK293 cells for transfection of the cDNA for human or mouse CCK-A R or CCK-B R [hCCK-A R (gene identity: L19315), hCCK-B R (NM_176875), mCCK-A R (NM_009827) and mCCK-B R (NM_007627)] all cloned into the transfection plasmid pIRESneo2dNGFR. The cells were grown according to standard protocol in growth medium and transfected with the plasmids using Lipofectamin (Invitrogen). The cells stably expressing CCK receptors were selected using G418 in the growth medium (only cells that have taken up and incorporated the cDNA expression plasmid survive) and propagated. Stocks of cells were frozen for later use.
In vitro effects of peptide conjugates of the invention were estimated by measuring p-ERK (using the AlphaScreen™ SureFire p-ERK assay) in HEK293 cells stably expressing the human and mouse CCK-B R (high-affinity Gastrin receptor), respectively. The Gastrin receptor efficacy assays (AlphaScreen™ SureFire p-ERK assay) were performed as follows:
The CCK-B R expressing cells in question were seeded at 20,000 cells/well in 100 μl growth medium [DMEM, 10% FCS, Penicillin (100 IU/ml), Streptomycin (100 μg/ml)] in a 96-well plate coated with poly-D-lysine. The cells were incubated in an incubator (37° C., 5% […]) for two days.
The growth medium was changed to 80 μl of serum-free medium [DMEM, Penicillin (100 IU/ml), Streptomycin (100 μg/ml)] per well, and incubation of the cells was continued for 19 hours in the incubator (37° C., 5% CO2).
• 1. After 19 hours, 20 μl of serum-free medium containing one of 5 different concentrations of peptide conjugate was added (performed in triplicate for each concentration), and the cells were incubated for 5 min. at room temperature. • 2. The stimulation medium was discarded by quickly turning the plate upside down, and 60 μl 1× lysis buffer (from the SureFire assay kit) was added per well. • 3. The plate was shaken on a plate-shaker for 5 min and then placed on ice. • 4. SureFire P-ERK assay: 4 μl of each supernatant was transferred to a 384 well proxiplate (Perkin Elmer). • 5. 4 μl of each of the two control lysates (unstimulated and stimulated) were added to the proxiplate in duplicate. • 6. […] 7 μl of the latter reaction buffer+activation buffer+beads per well were added in the proxiplate, the mix being resuspended carefully before addition to the wells. • 7. The plate was incubated for 2 hours in a dark box in a 22° C. incubator. • 8. The plate was analyzed on an Envision™ light-emission plate reader (Perkin-Elmer) using the appropriate reading program (Perkin-Elmer).

T2 sequence (P43220 24-463): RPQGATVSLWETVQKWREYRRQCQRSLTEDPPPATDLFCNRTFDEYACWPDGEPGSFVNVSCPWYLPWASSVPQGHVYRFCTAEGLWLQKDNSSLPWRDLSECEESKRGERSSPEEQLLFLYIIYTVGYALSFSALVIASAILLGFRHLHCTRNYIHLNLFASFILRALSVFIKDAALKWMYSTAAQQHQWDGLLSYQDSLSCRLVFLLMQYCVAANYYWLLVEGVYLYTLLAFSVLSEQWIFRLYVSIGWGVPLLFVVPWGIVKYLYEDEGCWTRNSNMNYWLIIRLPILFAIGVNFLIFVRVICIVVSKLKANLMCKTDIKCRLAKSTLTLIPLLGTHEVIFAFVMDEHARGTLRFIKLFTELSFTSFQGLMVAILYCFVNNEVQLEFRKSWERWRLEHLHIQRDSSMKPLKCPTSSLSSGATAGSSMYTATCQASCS

## CC[C@H](C)[C@H](NC(=O)[C@H](Cc1ccccc1)NC(=O)[C@H](CC(C)C)NC(=O)[C@H](CCCNC(=N)N)NC(=O)[C@@H](NC(=O)[C@H](C)NC(=O)[C@H](CCC(=O)O)NC(=O)[C@H](CCC(=O)O)NC(=O)[C@H](CCC(=O)O)NC(=O)[C@H](CC(C)C)NC(=O)[C@H](Cc1ccc(O)cc1)NC(=O)[C@H](CCCCN)NC(=O)[C@H](CO)NC(=O)[C@H](CC(C)C)NC(=O)[C@H](CCC(=O)O)NC(=O)[C@H](CO)NC(=O)[C@@H](NC(=O)[C@H](Cc1ccccc1)NC(=O)[C@@H](NC(=O)CNC(=O)[C@H](CCC(=O)O)NC(=O)CNC(=O)[C@@H](N)Cc1c[nH]cn1)[C@@H](C)O)[C@@H](C)O)C(C)C)C(=O)N[C@@H](CCC(=O)O)C(=O)N[C@@H](Cc1ccccc1)C(=O)N[C@@H](CC(C)C)C(=O)N[C@@H](CCCCN)C(=O)NCCOCCOCC(=O)N[C@@H](CCCN)C(=O)N[C@@H](Cc1ccc(O)cc1)C(=O)NCC(=O)N[C@@H](Cc1c[nH]c2ccccc12)C(=O)N[C@@H](CC(C)C)C(=O)N[C@@H](CC(=O)O)C(=O)N[C@@H](Cc1ccccc1)C(N)=O [Compound 104, [Glu9,Leu14,Phe25,Tyr13]Exendin-4(1-27)-Peg3-Orn-[Leu4]Gastrin6] (H-HGEGTFTSELSKYLEEEAVRLFIEFLK[AEEA][Orn]YGWLDF-NH2)
Human CCK-B R
  pEC50: 8.06
Human GLP-1 R
  pEC50: 10.06

## QGPWLEEEEEAYGWLDF-NH2 [h[Gln1,Leu15]Gastrin17, reference compound]
Mouse CCK-B R
  pEC50: 7.74

## CC[C@H](C)[C@H](NC(=O)[C@H](Cc1ccccc1)NC(=O)[C@H](CC(C)C)NC(=O)[C@H](CCCNC(=N)N)NC(=O)[C@@H](NC(=O)[C@H](C)NC(=O)[C@H](CCC(=O)O)NC(=O)[C@H](CCC(=O)O)NC(=O)[C@H](CCC(=O)O)NC(=O)[C@H](CCSC)NC(=O)[C@H](CCC(N)=O)NC(=O)[C@H](CCCCN)NC(=O)[C@H](CO)NC(=O)[C@H](CC(C)C)NC(=O)[C@H](CC(=O)O)NC(=O)[C@H](CO)NC(=O)[C@@H](NC(=O)[C@H](Cc1ccccc1)NC(=O)[C@@H](NC(=O)CNC(=O)[C@H](CCC(=O)O)NC(=O)CNC(=O)[C@@H](N)Cc1c[nH]cn1)[C@@H](C)O)[C@@H](C)O)C(C)C)C(=O)N[C@@H](CCC(=O)O)C(=O)N[C@@H](Cc1ccccc1)C(=O)N[C@@H](CC(C)C)C(=O)N[C@@H](CCCCN)C(=O)N[C@@H](CC(N)=O)C(=O)NCCOCCOCC(=O)NCCOCCOCC(=O)N[C@@H](Cc1ccc(O)cc1)C(=O)NCC(=O)N[C@@H](Cc1c[nH]c2ccccc12)C(=O)N[C@@H](CC(C)C)C(=O)N[C@@H](CC(=O)O)C(=O)N[C@@H](Cc1ccccc1)C(N)=O [Compound 63, [Phe25]Exendin-4(1-28)-Peg3-Peg3-[Leu4]Gastrin6]
Human CCK-B R
  pEC50: 8.07
Human GLP-1 R
  pEC50: 10.39

## CC[C@H](C)[C@H](NC(=O)[C@H](Cc1ccccc1)NC(=O)[C@H](CC(C)C)NC(=O)[C@H](CCCNC(=N)N)NC(=O)[C@@H](NC(=O)[C@H](C)NC(=O)[C@H](CCC(=O)O)NC(=O)[C@H](CCC(=O)O)NC(=O)[C@H](CCC(=O)O)NC(=O)[C@H](CC(C)C)NC(=O)[C@H](Cc1ccc(O)cc1)NC(=O)[C@H](CCCCN)NC(=O)[C@H](CO)NC(=O)[C@H](CC(C)C)NC(=O)[C@H](CCC(=O)O)NC(=O)[C@H](CO)NC(=O)[C@@H](NC(=O)[C@H](Cc1ccccc1)NC(=O)[C@@H](NC(=O)CNC(=O)[C@H](CCC(=O)O)NC(=O)CNC(=O)[C@@H](N)Cc1c[nH]cn1)[C@@H](C)O)[C@@H](C)O)C(C)C)C(=O)N[C@@H](CCC(=O)O)C(=O)N[C@@H](Cc1ccccc1)C(=O)N[C@@H](CC(C)C)C(=O)N[C@@H](CCCCN)C(=O)N[C@@H](CCCN)C(=O)N[C@@H](CCCN)C(=O)N[C@@H](Cc1ccc(O)cc1)C(=O)NCC(=O)N[C@@H](Cc1c[nH]c2ccccc12)C(=O)N[C@@H](CC(C)C)C(=O)N[C@@H](CC(=O)O)C(=O)N[C@@H](Cc1ccccc1)C(N)=O [Compound 105, [Glu9,Leu14,Phe25,Tyr13]Exendin-4(1-27)-Orn-Orn-[Leu4]Gastrin6] (H-HGEGTFTSELSKYLEEEAVRLFIEFLK[Orn][Orn]YGWLDF-NH2)
Human CCK-B R
  pEC50: 7.80
Human GLP-1 R
  pEC50: 9.96

## CC[C@H](C)[C@H](NC(=O)[C@H](Cc1ccccc1)NC(=O)[C@H](CC(C)C)NC(=O)[C@H](CCCNC(=N)N)NC(=O)[C@@H](NC(=O)[C@H](C)NC(=O)[C@H](CCC(=O)O)NC(=O)[C@H](CCC(=O)O)NC(=O)[C@H](CCC(=O)O)NC(=O)[C@H](CC(C)C)NC(=O)[C@H](Cc1ccc(O)cc1)NC(=O)[C@H](CCCCN)NC(=O)[C@H](CO)NC(=O)[C@H](CC(C)C)NC(=O)[C@H](CCC(=O)O)NC(=O)[C@H](CO)NC(=O)[C@@H](NC(=O)[C@H](Cc1ccccc1)NC(=O)[C@@H](NC(=O)CNC(=O)[C@H](CCC(=O)O)NC(=O)CNC(=O)[C@@H](N)Cc1c[nH]cn1)[C@@H](C)O)[C@@H](C)O)C(C)C)C(=O)N[C@@H](CCC(=O)O)C(=O)N[C@@H](Cc1ccccc1)C(=O)N[C@@H](CC(C)C)C(=O)N[C@@H](CCCCN)C(=O)NCCOCCOCC(=O)NCCOCCOCC(=O)N[C@@H](Cc1ccc(O)cc1)C(=O)NCC(=O)N[C@@H](Cc1ccccc1)C(=O)N[C@@H](CC(C)C)C(=O)N[C@@H](CC(=O)O)C(=O)N[C@@H](Cc1ccccc1)C(N)=O [Compound 90, [Glu9,Leu14,Phe25,Tyr13]Exendin-4(1-27)-Peg3-Peg3-[Leu4,Phe3]Gastrin6] (H-HGEGTFTSELSKYLEEEAVRLFIEFLK[AEEA][AEEA]YGFLDF-NH2)
Human CCK-B R
  pEC50: 5.89
Human GLP-1 R
  pEC50: 10.49

## H-HGEGTFTSELSKYLEEEAVRLFIEFLKYGWLDF-NH2 [Compound 101, [Glu9,Leu14,Phe25,Tyr13]Exendin-4(1-27)-[Leu4]Gastrin6]
Human CCK-B R
  pEC50: 7.52
Human GLP-1 R
  pEC50: 9.96
